Assays:
[1] = target: GCN2 (Homo sapiens, UniProt Q9P2K8); assay: GCN2 enzyme assay (TR-FRET Lanthascreen, GFP-eIF2alpha substrate); assay type: biochemical
Text: GCN2: Assay Principle & Conditions
This assay can quantificate the activity of the serin kinase GCN2 (general control non-derepressible-2).
This kinase is involved in the stress metabolism of cells. It is activated upon starvation (amino acid depletion). Its natural substrate is eIF2a (eukaryotic initiation factor 2 alpha subunit), a translation factor, which gets activated (phosphorylated) by GCN2 in case of an amino acid bottleneck in the cells. This in turn leads to a halt of the protein synthesis. Inhibition of GCN2 results in stopping this mechanism: The cell can not stop protein production upon “starvation” stress.
The assay is run in two steps: the enzymatic reaction and the detection step. In the first step GCN2 is incubated with 10 μM ATP and 80 nM of the GFP-labelled substrate eIF2alpha at room temperature.
The enzymatic reaction is stopped by addition of EDTA. The amount of phosphorylated eIF2alpha is determined by TR-FRET (Lanthascreen): A complex is formed consisting of antibody and GFP labelled phospho-eIF2a, which allows a FRET upon exitation at 340 nm.
Final Concentrations in the Enzymatic Reaction • Hepes, pH 7.0 50 mM • MgCl2 10 mM • MnCl2 5 mM • BSA 0.1% • DMSO 1% • ATP 10 uM • DTT 2 mM • GFP-eIF2a 80 nM (substrate) • GCN2 30 nM (enzyme)

[2] = target: T1, SYK (Homo sapiens, UniProt P43405); assay: SYK enzyme assay (Flash plate assay / Caliper mobility shift assay); assay type: biochemical
T1 construct: purchased BPS Bioscience, CA, USA
Protocol: The kinase assay is performed either as 384-well Flashplate assay (for e.g. Topcount measurement) or as 384-well Image-Flashplate assay (for LEADseeker measurement).
2.5 nM SYK, 400 nM Biotin-Aha-Aha-[…]
and 10 μM ATP (spiked with 0.3 μCi 33P-ATP/well) are incubated in a total volume of 50 μl (60 mM Hepes, 10 mM MgCl2, 1.2 mM Dithiothreitol, 0.02% Brij35, 0.1% BSA, pH 7.5) with or without test compound for 1 hours at 30° C. The reaction is stopped with 25 μl 200 mM EDTA. After 30 Min at 30° C. the liquid is removed and each well washed thrice with 100 μl 0.9% sodium chloride solution. Non-specific reaction is determined in presence of 0.1 μM Staurosporine. Radioactivity is measured with Topcount (when using Flashplates) or with LEADseeker (when using Image-Flashplates) respectively. Results (e.g. IC50-values) are calculated with program tools provided by the IT-department (e.g. Symyx Assay Explorer, Genedata Screener).
Enzymatic Assays Using the Caliper LifeSciences Technology
The assays described here are performed on the Caliper Life Sciences LC3000 system This technology provides data on enzyme activity via measurement of the relative amounts of phosphorylated or unphosphorylated fluorescently labelled substrate peptide at the end of an enzymatic reaction.
These different states of peptide are resolved by applying a potential difference across the sample. The presence of the charged phosphate group on the product (as opposed to the substrate) causes a different peptide mobility between the two peptides. This is visualized by excitation of the fluorescent label on the substrate and product peptides and represented as peaks within the analysis software.
In order to measure inhibitor activity of kinase inhibitors on this technology, a TTP Mosquito liquid handling instrument is used to place 0.25 ul of the appropriate concentration of inhibitor in 100% DMSO (for a dose response curve calculation) into each well of a 384-well plate. To this reaction components are added to a final volume of 25 ul. The table below indicates the sequences and concentrations for the assays described in this report. Standard components are 1 mM DTT (Sigma, D0632), 1 mM MgCl2 (Sigma, M1028), 100 mM HEPES pH 7.5 (Calbiochem, 391338), 0.015% Brij-35 (Sigma, B4184).
The reaction is incubated for 90 min at 25 C, and then stopped by the addition of 70 ul of Stop buffer (100 mM HEPES pH 7.5, 0.015% Brij-35, 10 mM EDTA (Sigma, E7889)).
The plate is read on a Caliper LC 3000 in an Off-Chip mobility shift assay format, on a 12-sipper chip. Unphosphorylated substrate and phosphorylated product peptide resolve as separate peaks allowing direct measurement of percentage of conversion of substrate to product. The percent conversion can be plotted against concentration of inhibitor to produce a sigmoidal dose response curve, from which an IC50 can be calculated using GeneData Condoseo or a similar product.

[3] = 100% corresponds to zero effect, −50% corresponds to IC50

Sequence of GCN2 (Q9P2K8 whole entry): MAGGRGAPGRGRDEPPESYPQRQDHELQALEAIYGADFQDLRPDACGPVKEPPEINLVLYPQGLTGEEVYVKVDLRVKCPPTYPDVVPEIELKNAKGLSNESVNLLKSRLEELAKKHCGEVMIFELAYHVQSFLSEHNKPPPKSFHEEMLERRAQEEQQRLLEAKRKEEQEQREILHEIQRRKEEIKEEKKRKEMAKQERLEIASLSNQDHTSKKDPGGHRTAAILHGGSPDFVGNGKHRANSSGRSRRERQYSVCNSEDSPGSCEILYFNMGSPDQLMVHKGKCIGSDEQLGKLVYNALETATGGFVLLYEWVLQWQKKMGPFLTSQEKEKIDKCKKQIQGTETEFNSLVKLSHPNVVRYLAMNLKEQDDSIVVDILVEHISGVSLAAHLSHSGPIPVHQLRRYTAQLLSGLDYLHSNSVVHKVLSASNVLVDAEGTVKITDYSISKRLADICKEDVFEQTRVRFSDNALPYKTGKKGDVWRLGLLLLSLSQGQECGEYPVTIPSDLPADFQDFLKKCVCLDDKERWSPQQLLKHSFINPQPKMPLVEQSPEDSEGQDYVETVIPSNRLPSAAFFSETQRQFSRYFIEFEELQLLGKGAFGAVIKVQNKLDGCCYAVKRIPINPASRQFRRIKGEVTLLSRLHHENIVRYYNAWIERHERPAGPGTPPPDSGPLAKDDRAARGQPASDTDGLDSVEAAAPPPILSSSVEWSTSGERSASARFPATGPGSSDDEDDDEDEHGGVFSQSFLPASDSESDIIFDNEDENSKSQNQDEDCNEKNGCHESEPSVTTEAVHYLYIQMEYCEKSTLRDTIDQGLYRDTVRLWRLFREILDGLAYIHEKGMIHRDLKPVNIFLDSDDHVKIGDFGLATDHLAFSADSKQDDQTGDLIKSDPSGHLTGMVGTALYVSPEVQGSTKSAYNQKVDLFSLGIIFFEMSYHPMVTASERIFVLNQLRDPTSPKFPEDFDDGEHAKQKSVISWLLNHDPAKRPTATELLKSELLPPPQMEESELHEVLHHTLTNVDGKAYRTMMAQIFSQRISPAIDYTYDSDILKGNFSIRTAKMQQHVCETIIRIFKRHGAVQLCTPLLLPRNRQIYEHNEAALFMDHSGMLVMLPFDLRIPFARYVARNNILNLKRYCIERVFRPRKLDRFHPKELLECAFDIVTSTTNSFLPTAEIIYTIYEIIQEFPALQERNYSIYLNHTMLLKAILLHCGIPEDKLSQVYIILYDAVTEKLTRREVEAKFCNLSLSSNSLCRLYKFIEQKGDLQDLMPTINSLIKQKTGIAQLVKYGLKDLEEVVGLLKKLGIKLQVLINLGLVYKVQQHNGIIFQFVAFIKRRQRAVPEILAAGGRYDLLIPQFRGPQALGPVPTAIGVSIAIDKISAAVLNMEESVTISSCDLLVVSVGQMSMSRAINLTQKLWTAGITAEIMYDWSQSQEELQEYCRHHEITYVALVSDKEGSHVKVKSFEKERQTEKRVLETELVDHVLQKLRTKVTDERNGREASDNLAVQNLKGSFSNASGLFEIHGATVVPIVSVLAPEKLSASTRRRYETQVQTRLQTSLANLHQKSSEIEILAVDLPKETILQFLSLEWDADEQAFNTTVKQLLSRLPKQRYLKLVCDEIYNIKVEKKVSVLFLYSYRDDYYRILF

For `CN1CCN(c2ccc(Nc3nc4cncc(Nc5cnn(C)c5)n4n3)cc2)CC1` [Compound A53, N2-[4-(4-methyl-piperazin-1-yl)-phenyl]-N5-(1-methyl-1H-pyrazol-4-yl)-[1,2,4] triazolo[1,5-a]pyrazine-2,5-diamine], which IC50 [1] is on record?
The IC50 was 1 to 5 µM.

And the “SYK (enzyme assay) % at 3 μM” value [2, 3]?
The value was −23@3%.

Which results are given for `Cc1ccc(-c2cncc3nc(Nc4ccc(N5CCOCC5)cc4)nn23)o1` [Compound A55, [5-(5-methyl-furan-2-yl)-[1,2,4]triazolo[1,5-a]pyrazin-2-yl]-(4-morpholin-4-yl-phenyl)-amine]?
IC50 [1]: < 1 µM; IC50 [2]: < 1 µM

Which results are given for `c1cc(N2CCOCC2)ccc1Nc1nc2cncc(-c3cnn(CCN4CCOCC4)c3)n2n1` [Compound A56, {5-[1-(2-morpholin-4-yl-ethyl)-1H-pyrazol-4-yl]-[1,2,4]triazolo[1,5-a]pyrazin-2-yl}-(4-morpholin-4-yl-phenyl)-amine]?
IC50 [1]: 1 to 5 µM; IC50 [2]: 1 to 5 µM

What does the source list for `Cn1cc(-c2cncc3nc(Nc4cccc(C#N)c4)nn23)cn1` [Compound A57, 3-[5-(1-methyl-1H-pyrazol-4-yl)-[1,2,4]triazolo[1,5-a]pyrazin-2-ylamino]-benzonitrile]?
IC50 [1]: 1 to 5 µM; IC50 [2]: 5 to 10 µM

Which IC50 [1] does the source give for `O=C1Cc2cc(Nc3nc4cncc(-c5ccc(CN6CCOCC6)s5)n4n3)ccc2N1` [Compound A58, 5-[5-(5-morpholin-4-ylmethyl-thiophen-2-yl)-[1,2,4]triazolo[1,5-a]pyrazin-2-ylamino]-1,3-dihydro-indol-2-one] here?
Its IC50 is under 1 µM.

And the “SYK (enzyme assay) % at 3 μM” value [2, 3]?
The value was −34@3%.

Which IC50 [1] does the source give for `Cn1cc(-c2cncc3nc(Nc4ccc5c(c4)OCCO5)nn23)cn1` [Compound A59, (2,3-dihydro-benzo[1,4]dioxin-6-yl)-[5-(1-methyl-1H-pyrazol-4-yl)-[1,2,4]triazolo[1,5-a]pyrazin-2-yl]-amine] here?
Its IC50 is under 1 µM.

And the IC50 [2]?
The IC50 was 1 to 5 µM.

Which results are given for `Cn1cc(-c2cncc3nc(Nc4ccc(-c5ccncc5)cc4)nn23)cn1` [Compound A60, [5-(1-methyl-1H-pyrazol-4-yl)-[1,2,4]triazolo[1,5-a]pyrazin-2-yl]-(4-pyridin-4-yl-phenyl)-amine]?
IC50 [1]: 1 to 5 µM; IC50 [2]: < 1 µM

`Cn1cc(-c2cncc3nc(Nc4ccc(CN5CCOCC5)cc4)nn23)cn1` [Compound A61, [5-(1-methyl-1H-pyrazol-4-yl)-[1,2,4]triazolo[1,5-a]pyrazin-2-yl]-(4-morpholin-4-ylmethyl-phenyl)-amine] was tested. Which IC50 [1] did it give?
The IC50 was under 1 µM.

What about the IC50 [2] of the same compound?
Its IC50 is 1 to 5 µM.

Which IC50 [1] does the source give for `c1cc(N2CCOCC2)ccc1Nc1nc2cncc(-c3ccc(CN4CCOCC4)s3)n2n1` [Compound A62, [5-(5-morpholin-4-ylmethyl-thiophen-2-yl)-[1,2,4]triazolo[1,5-a]pyrazin-2-yl]-(4-morpholin-4-yl-phenyl)-amine] here?
Its IC50 is under 1 µM.

And the “SYK (enzyme assay) % at 3 μM” value [2, 3]?
The value was −5@3%.

What does the source list for `N#Cc1cc(-c2cncc3nc(Nc4ccc(N5CCOCC5)cc4)nn23)ccc1OC1CCOCC1` [Compound A63, 5-[2-(4-morpholin-4-yl-phenylamino)-[1,2,4]triazolo[1,5-a]pyrazin-5-yl]-2-(tetrahydro-pyran-4-yloxy)-benzonitrile]?
IC50 [1]: 1 to 5 µM; SYK (enzyme assay) % at 3 μM [2, 3]: −30@3%

What does the source list for `Cc1cc(Nc2nc3cncc(-c4cnn(C)c4)n3n2)ccc1OC(F)(F)F` [Compound A64, [5-(1-methyl-1H-pyrazol-4-yl)-[1,2,4]triazolo[1,5-a]pyrazin-2-yl]-(3-methyl-4-trifluoromethoxy-phenyl)-amine]?
IC50 [1]: < 1 µM; IC50 [2]: 1 to 5 µM

For `Cc1cc(Nc2nc3cncc(-c4cnn(C)c4)n3n2)ccc1NC(=O)C1CCC1` [Compound A65, cyclobutanecarboxylic acid {2-methyl-4-[5-(1-methyl-1H-pyrazol-4-yl)-[1,2,4]triazolo[1,5-a]pyrazin-2-ylamino]-phenyl}-amide], which IC50 [1] is on record?
The IC50 was under 1 µM.

What about the IC50 [2] of the same compound?
Its IC50 is 5 to 10 µM.

Which IC50 [1] does the source give for `Cn1cc(-c2cncc3nc(Nc4ccc(C(=O)N5CCOCC5)cc4)nn23)cn1` [Compound A66, {4-[5-(1-methyl-1H-pyrazol-4-yl)-[1,2,4]triazolo[1,5-a]pyrazin-2-ylamino]-phenyl}-morpholin-4-yl-methanone] here?
Its IC50 is under 1 µM.

And the IC50 [2]?
The IC50 was 1 to 5 µM.

Which results are given for `COc1cc(Nc2nc3cncc(-c4cnn(C)c4)n3n2)ccc1N1CCN(C)CC1` [Compound A67, [3-methoxy-4-(4-methyl-piperazin-1-yl)-phenyl]-[5-(1-methyl-1H-pyrazol-4-yl)-[1,2,4]triazolo[1,5-a]pyrazin-2-yl]-amine]?
IC50 [1]: < 1 µM; IC50 [2]: 1 to 5 µM

With `Cc1cc(Nc2nc3cncc(-c4cnn(C)c4)n3n2)ccc1CN1CCOCC1` [Compound A68, (3-methyl-4-morpholin-4-ylmethyl-phenyl)-[5-(1-methyl-1H-pyrazol-4-yl)-[1,2,4]triazolo[1,5-a]pyrazin-2-yl]-amine] as the compound, how does the IC50 [1] read?
The IC50 was under 1 µM.

And the IC50 [2]?
Its IC50 is 1 to 5 µM.

Which results are given for `Cc1cc(Nc2nc3cncc(-c4cnn(C)c4)n3n2)ccc1C(=O)NCC1CC1` [Compound A69, N-cyclopropylmethyl-2-methyl-4-[5-(1-methyl-1H-pyrazol-4-yl)-[1,2,4]triazolo[1,5-a]pyrazin-2-ylamino]-benzamide]?
IC50 [1]: < 1 µM; IC50 [2]: 1 to 5 µM

What does the source list for `COc1cc(Nc2nc3cncc(-c4cnn(C)c4)n3n2)ccc1C(=O)NCC1CC1` [Compound A70, N-cyclopropylmethyl-2-methoxy-4-[5-(1-methyl-1H-pyrazol-4-yl)-[1,2,4]triazolo[1,5-a]pyrazin-2-ylamino]-benzamide]?
IC50 [1]: < 1 µM; SYK (enzyme assay) % at 0.3 μM ([2]; at 0.3 μM, 100% corresponds to zero effect, −50% corresponds to IC50): −12@0.3%

Which IC50 [1] does the source give for `Cc1cc(Nc2nc3cncc(-c4cnn(C)c4)n3n2)ccc1C(=O)NC1CC1` [Compound A71, N-cyclopropyl-2-methyl-4-[5-(1-methyl-1H-pyrazol-4-yl)-[1,2,4]triazolo[1,5-a]pyrazin-2-ylamino]-benzamide] here?
Its IC50 is under 1 µM.

And the IC50 [2]?
The IC50 was 1 to 5 µM.

`COc1cc(Nc2nc3cncc(-c4cnn(C)c4)n3n2)ccc1C(=O)NC1CC1` [Compound A72, N-cyclopropyl-2-methoxy-4-[5-(1-methyl-1H-pyrazol-4-yl)-[1,2,4]triazolo[1,5-a]pyrazin-2-ylamino]-benzamide] was tested. Which IC50 [1] did it give?
The IC50 was under 1 µM.

What about the IC50 [2] of the same compound?
Its IC50 is 5 to 10 µM.

With `Cc1cc(Nc2nc3cncc(-c4cnn(C)c4)n3n2)ccc1C(=O)N1CCOCC1` [Compound A73, {2-methyl-4-[5-(1-methyl-1H-pyrazol-4-yl)-[1,2,4]triazolo[1,5-a]pyrazin-2-ylamino]-phenyl}-morpholin-4-yl-methanone] as the compound, how does the IC50 [1] read?
Its IC50 is under 1 µM.

What about the IC50 [2] of the same compound?
The IC50 was 1 to 5 µM.

Which results are given for `Cn1cc(-c2cncc3nc(NC(=O)C4CCNCC4)nn23)cn1` [Compound A74, piperidine-4-carboxylic acid [5-(1-methyl-1H-pyrazol-4-yl)-[1,2,4]triazolo[1,5-a]pyrazin-2-yl]-amide]?
IC50 [1]: 5 to 10 µM; SYK (enzyme assay) % at 3 μM [2, 3]: 4@3%

What does the source list for `COc1cc(Nc2nc3cncc(-c4cnn(CCN5CCOCC5)c4)n3n2)ccc1N1CCN(C)CC1` [Compound A75, [3-methoxy-4-(4-methyl-piperazin-1-yl)-phenyl]-{5-[1-(2-morpholin-4-yl-ethyl)-1H-pyrazol-4-yl]-[1,2,4]triazolo[1,5-a]pyrazin-2-yl}-amine]?
IC50 [1]: < 1 µM; SYK (enzyme assay) % at 3 μM [2, 3]: −21@3%
